Measured values taken from patent US20230365592A1 (Agios Pharmaceuticals, Inc., priority 2022, published 2023).

Target: T1, human PAH with the R408W mutation (Homo sapiens, UniProt P00439, R408W)
T1 construct: expressed in transfected cells
T1 sequence (P00439 1-452 R408W): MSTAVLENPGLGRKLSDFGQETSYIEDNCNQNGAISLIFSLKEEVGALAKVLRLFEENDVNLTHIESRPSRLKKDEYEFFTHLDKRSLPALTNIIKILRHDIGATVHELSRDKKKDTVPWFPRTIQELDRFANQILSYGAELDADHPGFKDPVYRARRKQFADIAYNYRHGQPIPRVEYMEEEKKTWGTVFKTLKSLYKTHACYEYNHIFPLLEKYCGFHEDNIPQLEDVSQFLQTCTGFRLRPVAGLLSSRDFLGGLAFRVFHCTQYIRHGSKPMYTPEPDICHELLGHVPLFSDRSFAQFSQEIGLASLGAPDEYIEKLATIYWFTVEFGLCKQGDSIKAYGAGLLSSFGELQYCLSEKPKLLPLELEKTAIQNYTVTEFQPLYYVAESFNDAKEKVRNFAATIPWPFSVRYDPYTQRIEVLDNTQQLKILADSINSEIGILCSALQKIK
Test: Cell Based Phenylalanine Flux Assay;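 further: after compound treatment, cells received sepiapterin plus isotope-labelled Phenylalanine for 4 hours, then labelled Tyrosine in the medium was quantified, 10-point 2-fold dilution series run in duplicate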
Conditions: A375 cells expressing human R408W PAH; 24 hrs compound incubation; 13C-Tyrosine by LC-MS; average where tested multiple times; read-out: AC50

AC50 [µM] | Compound
1 to 5 | COCc1ccc2c(C(=O)N3CCc4[nH]cnc4[C@@H]3c3cc4c(C(F)(F)F)cccn4n3)cnn2c1 [Example 1549, (R)-(6-(methoxymethyl)pyrazolo[1,5-a]pyridin-3-yl)(4-(4-(trifluoromethyl)pyrazolo[1,5-a]pyridin-2-yl)-6,7-dihydro-1H-imidazo[4,5-c]pyridin-5(4H)-yl)methanone]
1 to 5 | O=C(c1cnn2cc(-c3ccccn3)ccc12)N1CCc2[nH]cnc2[C@@H]1c1cc2c(C(F)(F)F)cccn2n1 [Example 1551, (R)-(6-(pyridin-2-yl)pyrazolo[1,5-a]pyridin-3-yl)(4-(4-(trifluoromethyl)pyrazolo[1,5-a]pyridin-2-yl)-6,7-dihydro-1H-imidazo[4,5-c]pyridin-5(4H)-yl)methanone]
1 to 5 | CC(C)c1nnc(C(=O)N2CCc3[nH]cnc3[C@H]2c2cc3cccc(F)n3n2)o1 [Example 1555, (S)-(4-(7-fluoropyrazolo[1,5-a]pyridin-2-yl)-6,7-dihydro-1H-imidazo[4,5-c]pyridin-5(4H)-yl)(5-isopropyl-1,3,4-oxadiazol-2-yl)methanone]
< 0.5 | Cc1cccn2nc([C@@H]3c4nc[nH]c4CCN3C(=O)c3nnc(C4CCC4)o3)cc12 [Example 1556, (S)-(5-cyclobutyl-1,3,4-oxadiazol-2-yl)(4-(4-methylpyrazolo[1,5-a]pyridin-2-yl)-6,7-dihydro-1H-imidazo[4,5-c]pyridin-5(4H)-yl)methanone]
1 to 5 | Cc1cccn2nc([C@H]3c4nc[nH]c4CCN3C(=O)c3nnc(C4CCC4)o3)cc12 [Example 1557, (R)-(5-cyclobutyl-1,3,4-oxadiazol-2-yl)(4-(4-methylpyrazolo[1,5-a]pyridin-2-yl)-6,7-dihydro-1H-imidazo[4,5-c]pyridin-5(4H)-yl)methanone]
< 0.5 | O=C(c1nnc(C2CCC2)o1)N1CCc2[nH]cnc2[C@H]1c1cc2c(F)cccn2n1 [Example 1559, (S)-(5-cyclobutyl-1,3,4-oxadiazol-2-yl)(4-(4-fluoropyrazolo[1,5-a]pyridin-2-yl)-6,7-dihydro-1H-imidazo[4,5-c]pyridin-5(4H)-yl)methanone]
> 5 | O=C(c1nnc(C2CCC2)o1)N1CCc2[nH]cnc2[C@@H]1c1cc2cccc(Cl)n2n1 [Example 1560, (R)-(4-(7-chloropyrazolo[1,5-a]pyridin-2-yl)-6,7-dihydro-1H-imidazo[4,5-c]pyridin-5(4H)-yl)(5-cyclobutyl-1,3,4-oxadiazol-2-yl)methanone]
< 0.5 | O=C(c1nnc(C2CCC2)o1)N1CCc2[nH]cnc2[C@H]1c1cc2cccc(Cl)n2n1 [Example 1561, (S)-(4-(7-chloropyrazolo[1,5-a]pyridin-2-yl)-6,7-dihydro-1H-imidazo[4,5-c]pyridin-5(4H)-yl)(5-cyclobutyl-1,3,4-oxadiazol-2-yl)methanone]
0.5 to 1 | Cc1cccc2cc([C@@H]3c4nc[nH]c4CCN3C(=O)c3nnc(C4CCC4)o3)nn12 [Example 1562, (S)-(5-cyclobutyl-1,3,4-oxadiazol-2-yl)(4-(7-methylpyrazolo[1,5-a]pyridin-2-yl)-6,7-dihydro-1H-imidazo[4,5-c]pyridin-5(4H)-yl)methanone]
1 to 5 | Cc1cccc2cc([C@H]3c4nc[nH]c4CCN3C(=O)c3nnc(C4CCC4)o3)nn12 [Example 1563, (R)-(5-cyclobutyl-1,3,4-oxadiazol-2-yl)(4-(7-methylpyrazolo[1,5-a]pyridin-2-yl)-6,7-dihydro-1H-imidazo[4,5-c]pyridin-5(4H)-yl)methanone]
> 5 | Cc1cc(-c2nnc(C(=O)N3CCc4[nH]cnc4[C@@H]3c3cc4cccc(F)n4n3)o2)nn1C [Example 1564, (R)-(5-(1,5-dimethyl-1H-pyrazol-3-yl)-1,3,4-oxadiazol-2-yl)(4-(7-fluoropyrazolo[1,5-a]pyridin-2-yl)-6,7-dihydro-1H-imidazo[4,5-c]pyridin-5(4H)-yl)methanone]
0.5 to 1 | Cc1nn(C)cc1-c1nnc(C(=O)N2CCc3[nH]cnc3[C@H]2c2cc3cccc(F)n3n2)o1 [Example 1566, (S)-(5-(1,3-dimethyl-1H-pyrazol-4-yl)-1,3,4-oxadiazol-2-yl)(4-(7-fluoropyrazolo[1,5-a]pyridin-2-yl)-6,7-dihydro-1H-imidazo[4,5-c]pyridin-5(4H)-yl)methanone]
1 to 5 | Cc1nn(C)cc1-c1nnc(C(=O)N2CCc3[nH]cnc3[C@@H]2c2cc3cccc(F)n3n2)o1 [Example 1567, (R)-(5-(1,3-dimethyl-1H-pyrazol-4-yl)-1,3,4-oxadiazol-2-yl)(4-(7-fluoropyrazolo[1,5-a]pyridin-2-yl)-6,7-dihydro-1H-imidazo[4,5-c]pyridin-5(4H)-yl)methanone]
> 5 | Cc1cnn(C)c1-c1nnc(C(=O)N2CCc3[nH]cnc3[C@@H]2c2cc3c(C(F)F)cccn3n2)o1 [Example 1569, (R)-(4-(4-(difluoromethyl)pyrazolo[1,5-a]pyridin-2-yl)-6,7-dihydro-1H-imidazo[4,5-c]pyridin-5(4H)-yl)(5-(1,4-dimethyl-1H-pyrazol-5-yl)-1,3,4-oxadiazol-2-yl)methanone]
< 0.5 | O=C(c1nnc(-c2cnn(C(F)(F)F)c2)o1)N1CCc2[nH]cnc2[C@H]1c1cc2c(C(F)F)cccn2n1 [Example 1570, (S)-(4-(4-(difluoromethyl)pyrazolo[1,5-a]pyridin-2-yl)-6,7-dihydro-1H-imidazo[4,5-c]pyridin-5(4H)-yl)(5-(1-(trifluoromethyl)-1H-pyrazol-4-yl)-1,3,4-oxadiazol-2-yl)methanone]
1 to 5 | O=C(c1nnc(-c2cnn(C(F)(F)F)c2)o1)N1CCc2[nH]cnc2[C@@H]1c1cc2c(C(F)F)cccn2n1 [Example 1571, (R)-(4-(4-(difluoromethyl)pyrazolo[1,5-a]pyridin-2-yl)-6,7-dihydro-1H-imidazo[4,5-c]pyridin-5(4H)-yl)(5-(1-(trifluoromethyl)-1H-pyrazol-4-yl)-1,3,4-oxadiazol-2-yl)methanone]
1 to 5 | O=C(c1nnc(C2CCC2)o1)N1CCc2[nH]cnc2[C@@H]1c1cc2cccc(C(F)F)n2n1 [Example 1572, (R)-(5-cyclobutyl-1,3,4-oxadiazol-2-yl)(4-(7-(difluoromethyl)pyrazolo[1,5-a]pyridin-2-yl)-6,7-dihydro-1H-imidazo[4,5-c]pyridin-5(4H)-yl)methanone]
0.5 to 1 | O=C(c1nnc(C2CCC2)o1)N1CCc2[nH]cnc2[C@H]1c1cc2cccc(C(F)F)n2n1 [Example 1573, (S)-(5-cyclobutyl-1,3,4-oxadiazol-2-yl)(4-(7-(difluoromethyl)pyrazolo[1,5-a]pyridin-2-yl)-6,7-dihydro-1H-imidazo[4,5-c]pyridin-5(4H)-yl)methanone]
1 to 5 | O=C(c1nnc(C2CCC2)o1)N1CCc2[nH]cnc2[C@@H]1c1cc2cccc(F)n2n1 [Example 1574, (R)-(5-cyclobutyl-1,3,4-oxadiazol-2-yl)(4-(7-fluoropyrazolo[1,5-a]pyridin-2-yl)-6,7-dihydro-1H-imidazo[4,5-c]pyridin-5(4H)-yl)methanone]
< 0.5 | O=C(c1nnc(C2CCC2)o1)N1CCc2[nH]cnc2[C@H]1c1cc2cccc(F)n2n1 [Example 1575, (S)-(5-cyclobutyl-1,3,4-oxadiazol-2-yl)(4-(7-fluoropyrazolo[1,5-a]pyridin-2-yl)-6,7-dihydro-1H-imidazo[4,5-c]pyridin-5(4H)-yl)methanone]
0.5 to 1 | COc1ccc(-c2nnc(C(=O)N3CCc4[nH]cnc4[C@H]3c3cc4cccc(C(F)F)n4n3)o2)nc1 [Example 1578, (S)-(4-(7-(difluoromethyl)pyrazolo[1,5-a]pyridin-2-yl)-6,7-dihydro-1H-imidazo[4,5-c]pyridin-5(4H)-yl)(5-(5-methoxypyridin-2-yl)-1,3,4-oxadiazol-2-yl)methanone]
> 5 | COc1ccc(-c2nnc(C(=O)N3CCc4[nH]cnc4[C@@H]3c3cc4cccc(C(F)F)n4n3)o2)nc1 [Example 1579, (R)-(4-(7-(difluoromethyl)pyrazolo[1,5-a]pyridin-2-yl)-6,7-dihydro-1H-imidazo[4,5-c]pyridin-5(4H)-yl)(5-(5-methoxypyridin-2-yl)-1,3,4-oxadiazol-2-yl)methanone]
< 0.5 | O=C(c1nnc(-c2ncccc2F)o1)N1CCc2[nH]cnc2[C@H]1c1cc2cccc(C(F)F)n2n1 [Example 1580, (S)-(4-(7-(difluoromethyl)pyrazolo[1,5-a]pyridin-2-yl)-6,7-dihydro-1H-imidazo[4,5-c]pyridin-5(4H)-yl)(5-(3-fluoropyridin-2-yl)-1,3,4-oxadiazol-2-yl)methanone]
> 5 | O=C(c1nnc(-c2ncccc2F)o1)N1CCc2[nH]cnc2[C@@H]1c1cc2cccc(C(F)F)n2n1 [Example 1581, (R)-(4-(7-(difluoromethyl)pyrazolo[1,5-a]pyridin-2-yl)-6,7-dihydro-1H-imidazo[4,5-c]pyridin-5(4H)-yl)(5-(3-fluoropyridin-2-yl)-1,3,4-oxadiazol-2-yl)methanone]
0.5 to 1 | Cc1nn(C)cc1-c1nnc(C(=O)N2CCc3[nH]cnc3[C@H]2c2cc3cccc(C(F)F)n3n2)o1 [Example 1582, (S)-(4-(7-(difluoromethyl)pyrazolo[1,5-a]pyridin-2-yl)-6,7-dihydro-1H-imidazo[4,5-c]pyridin-5(4H)-yl)(5-(1,3-dimethyl-1H-pyrazol-4-yl)-1,3,4-oxadiazol-2-yl)methanone]
